# Laboratory results from patent US6849652B1, “1,2,4-triazole derivative, method for preparing the same, and pharmaceutical composition containing the same” (CJ Corp., priority 2002, dated 2005).
# Experiments:
# COX-2 = biological target: T1, COX-2 (Mus musculus, UniProt Q05769); assay: Assay for the COX-2 inhibitory activity using RAW 264.7 cell line (PGE2 inhibition); type: cell-based; settings: RAW264.7, RAW 264.7 cells, test compound 10 nM, interferon/LPS 18 hours, read-out: Cyclooxygenase (COX) Inhibition (%) COX-2 (10 nM)
# T1 construct: host or cells: RAW 264.7 cells, aspirin-pretreated, then induced with interferon and LPS
# T1 sequence (Q05769 18-604): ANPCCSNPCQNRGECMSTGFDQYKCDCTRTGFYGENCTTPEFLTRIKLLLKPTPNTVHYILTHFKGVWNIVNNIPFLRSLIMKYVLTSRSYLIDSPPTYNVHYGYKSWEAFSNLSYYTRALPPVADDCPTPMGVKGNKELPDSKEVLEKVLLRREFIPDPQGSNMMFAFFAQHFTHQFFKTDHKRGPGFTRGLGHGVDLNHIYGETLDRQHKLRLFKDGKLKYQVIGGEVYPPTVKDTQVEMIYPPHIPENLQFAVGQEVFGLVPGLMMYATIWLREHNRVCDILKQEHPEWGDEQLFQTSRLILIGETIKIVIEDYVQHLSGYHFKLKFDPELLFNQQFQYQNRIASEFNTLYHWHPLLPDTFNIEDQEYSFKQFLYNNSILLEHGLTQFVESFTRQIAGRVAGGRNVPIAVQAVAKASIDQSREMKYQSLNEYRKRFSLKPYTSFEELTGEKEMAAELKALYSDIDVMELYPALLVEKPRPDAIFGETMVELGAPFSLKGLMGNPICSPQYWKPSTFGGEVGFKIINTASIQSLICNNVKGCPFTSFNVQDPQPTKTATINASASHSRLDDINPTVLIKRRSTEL
# Procedure: Each well was treated with 250 μM of aspirin and incubated at 37° C. for 2 hours. After the culture media were replaced with new culture media, the new culture media were treated with a test compound (10 nM) and incubated for 30 minutes. Then, each well was treated with interferon (100 units/ml) and lipopolysaccharide (LPS, 100 ng/ml) and incubated for 18 hours. The culture media were transferred to other test tubes. The concentration of PGE2 was quantified by means of the EIA kit (Cayman Chemicals).
# (§1) The percentages of the COX inhibition were calculated according to the following equation:
# (§2) % Inhibition=(concentration of PGE2 in test compound-untreated sample —concentration of PGE2 in test compound-treated sample)/(concentration of PGE2 in test compound-untreated sample)×100
# COX-1 = biological target: T2, COX-1 (Homo sapiens, UniProt P23219); assay: Assay for the COX-1 inhibitory activity using U-937 (PGE2 inhibition); type: cell-based; settings: U-937 human lymphoma cells, test compound 1 μM, PGE2 vs DMSO control; read-out: Cyclooxygenase (COX) Inhibition (%) COX-1 (1 μM)
# T2 construct: host or cells: U-937 human lymphoma cells
# T2 sequence (P23219 24-599): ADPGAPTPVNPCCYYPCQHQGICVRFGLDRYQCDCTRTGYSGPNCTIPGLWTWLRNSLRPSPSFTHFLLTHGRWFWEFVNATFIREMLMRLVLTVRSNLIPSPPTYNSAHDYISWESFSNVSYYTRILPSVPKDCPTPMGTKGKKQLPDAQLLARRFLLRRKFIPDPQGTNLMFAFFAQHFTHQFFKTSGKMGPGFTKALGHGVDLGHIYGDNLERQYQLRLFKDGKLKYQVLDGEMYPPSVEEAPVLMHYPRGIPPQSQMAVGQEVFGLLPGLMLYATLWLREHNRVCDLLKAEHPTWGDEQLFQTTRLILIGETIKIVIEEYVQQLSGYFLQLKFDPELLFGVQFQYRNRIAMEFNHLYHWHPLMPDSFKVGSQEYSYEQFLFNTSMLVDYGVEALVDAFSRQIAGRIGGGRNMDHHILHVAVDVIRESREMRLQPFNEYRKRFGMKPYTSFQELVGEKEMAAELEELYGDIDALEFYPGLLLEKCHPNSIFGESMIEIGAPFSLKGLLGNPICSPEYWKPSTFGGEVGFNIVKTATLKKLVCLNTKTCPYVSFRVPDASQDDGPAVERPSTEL
# Procedure: The collected cells were diluted with HBSS (×1, Hank's balanced salt solution) to a concentration of 1×10^6 cells/ml. 1 ml of the dilute cell solution was placed into each well of 12-well plates. 5 μl of 1 μM solution of a test compound in DMSO and 5 μl of DMSO as a control were added to the wells. The wells were incubated in CO2 incubator at 37° C. for 15 minutes. Separately, 10 mM stock solution of arachidonic acid in ethanol was diluted ten times in ethanol to prepare 1 mM solution of arachidonic acid. Arachidonic acid acts as a substrate. 10 μl of the 1 mM solution of arachidonic acid was added to each well and incubated at CO2 incubator at 37° C. for 30 minutes. The cell solution of each well was placed in a centrifuge test tube and centrifuged at 10,000 rpm at 4° C. for 5 minutes. The concentration of PGE2 in the collected cells and the supernatant was quantified by means of a monoclonal kit (Cayman Chemicals). The percentages of PGE2 inhibition in a group of the test compound-treated cells in relation to a group of the DMSO-treated cells were calculated. Based on the calculated values, the COX-1 inhibitory activities were evaluated.
# as §1, §2
Compound,inhibition at 0.01 µM (COX-2) [%],inhibition at 1 µM (COX-1) [%]
"COc1ccc(-c2nc(C(F)(F)F)nn2-c2ccc(S(C)(=O)=O)c(F)c2)cc1F [Example 31, 1-(3-fluoro-4-methanesulfonylphenyl)-5-(3-fluoro-4-methoxyphenyl)-3-trifluoromethyl-1H-1,2,4-triazole]",16.2,26.4
"CS(=O)(=O)c1ccc(-n2nc(C(F)(F)F)nc2-c2cccc(F)c2)cc1F [Example 30, 1-(3-fluoro-4-methanesulfonylphenyl)-5-(3-fluorophenyl)-3-trifluoro methyl-1H-1,2,4-triazole]",15.1,23.2
"CS(=O)(=O)c1ccc(-n2nc(C(F)(F)F)nc2-c2ccc(Br)cc2)cc1F [Example 25, 1-(3-fluoro-4-methanesulfonylphenyl)-5-(4-bromophenyl)-3-trifluoromethyl-1H-1,2,4-triazole]",13.7,19.5
"COc1ccc(-c2nc(C(F)(F)F)nn2-c2ccc(S(C)(=O)=O)c(F)c2)cc1 [Example 23, 1-(3-fluoro-4-methanesulfonylphenyl)-5-(4-methoxyphenyl)-3-trifluoromethyl-1H-1,2,4-triazole]",41.2,15.5
"Cc1cccc(-c2nc(C(F)(F)F)nn2-c2ccc(S(C)(=O)=O)c(F)c2)c1 [Example 32, 1-(3-fluoro-4-methanesulfonylphenyl)-5-(3-methylphenyl)-3-trifluoromethyl-1H-1,2,4-triazole]",27.8,23.2
"CS(=O)(=O)c1ccc(-n2nc(C(F)(F)F)nc2-c2ccc(F)c(F)c2)cc1F [Example 35, 1-(3-fluoro-4-methanesulfonylphenyl)-5-(3,4-difluorophenyl)-3-trifluoromethyl-1H-1,2,4-triazole]",15.5,21.2
"CS(=O)(=O)c1ccc(-n2nc(C(F)(F)F)nc2-c2ccc3ccccc3c2)cc1F [Example 33, 1-(3-fluoro-4-methanesulfonylphenyl)-5-(naphthalene-2-yl)-3-trifluoromethyl-1H-1,2,4-triazole]",13.5,44.5
CS(=O)(=O)c1ccc(-n2nc(C(F)(F)F)nc2-c2ccc(Cl)cc2)cc1F [Example 26],22.3,27.4

# Next, values leading:
inhibition at 0.01 µM (COX-2) [%],inhibition at 1 µM (COX-1) [%],Compound
13.7,32.8,"CS(=O)(=O)c1ccc(-n2nc(C(F)(F)F)nc2-c2ccccc2)cc1F [Example 22, 1-(3-fluoro-4-methanesulfonylphenyl)-5-phenyl-3-trifluoromethyl-1H-1,2,4-triazole]"
19,26.4,"Cc1ccc(-c2nc(C(F)(F)F)nn2-c2ccc(S(C)(=O)=O)c(F)c2)cc1 [Example 27, 1-(3-fluoro-4-methanesulfonylphenyl)-5-(4-methylphenyl)-3-trifluoromethyl-1H-1,2,4-triazole]"
16.4,11.1,"CS(=O)(=O)c1ccc(-n2nc(C(F)(F)F)nc2-c2cccc(Cl)c2)cc1F [Example 29, 1-(3-fluoro-4-methanesulfonylphenyl)-5-(3-chlorophenyl)-3-trifluoro methyl-1H-1,2,4-triazole]"
41.5,11.2,"CS(=O)(=O)c1ccc(-n2nc(C(F)(F)F)nc2-c2ccc3c(c2)OCO3)cc1F [Example 34, 5-([1,3]benzodioxole-5-yl)-1-(3-fluoro-4-methanesulfonylphenyl)-3-trifluoromethyl-1H-1,2,4-triazole]"
15.6,25.7,"CCOc1ccc(-c2nc(C(F)(F)F)nn2-c2ccc(S(C)(=O)=O)c(F)c2)cc1 [Example 28, 1-(3-fluoro-4-methanesulfonylphenyl)-5-(4-ethoxyphenyl)-3-trifluoromethyl-1H-1,2,4-triazole]"
18.5,18.8,"CS(=O)(=O)c1ccc(-n2nc(C(F)(F)F)nc2-c2ccc(F)cc2)cc1F [Example 24, 1-(3-fluoro-4-methanesulfonylphenyl)-5-(4-fluorophenyl)-3-trifluoro methyl-1H-1,2,4-triazole]"
